Among the data in patent publication US10787444B2, “Compounds for the modulation of myc activity” (Syros Pharmaceuticals, Inc., priority 2015, dated 2020) are IC50 values, retold here.

Where a name gives a salt, the structure may show the parent alone. Read-outs that look alike come from different tables or passages of the source. A value given as a limit tells only on which side of the number the result lay.

For test [1], the target named is T1, c-Myc/Max/Ebox DNA (Homo sapiens, UniProt P01106).
T1 construct: his6 (cleaved yes)
Description: c-Myc/Max/Ebox DNA AlphaScreen Assay. The class given is binding. The note with it: calculated IC50 class. On the procedure: Compounds of the invention were assayed for c-Myc/Max/EBox activity as described in the following protocol. Human his6-c-Myc and his6-Max were used with biotinylated DNA containing a single Ebox sequence (biotin[…]) purchased from MWG Operon. Free c-Myc was generated from his6-c-Myc through thrombin cleavage of the his6 tag. For 384-well plate assays, 10 μL of a 2× solution of free c-Myc (20 nM final), Ni^2+ coated Acceptor Beads (25 μg/ml final), and biotinylated Ebox oligo (10 nM final) were added to 384-well plates with a Biotek EL406 liquid handler. 50 nL of compounds from stock plates were added by pin transfer using a Janus Workstation (PerkinElmer), allowing the compounds to interact with c-Myc prior to c-Myc binding with Max. In the current assay, DMSO was not allowed to exceed 2% v/v of the assay. 10 μl of 2× master mix containing streptavidin-coated donor beads (25 μg/ml final) and his6-Max (5 nM) were added. AlphaScreen measurements were performed on an Envision plate reader (PerkinElmer) utilizing the manufacturer's protocol.
Both master mixes were made in room temperature assay buffer (50 mM HEPES, 150 mM NaCl, 0.2% w/v BSA, 0.02% w/v Tween20, 40 μg/ml glycogen, 500 μM DTT, pH 8.0, wherein both DTT and glycogen were added fresh). Alpha beads were added to respective master solutions. All subsequent steps were performed in low light conditions. Solution 1:2× solution of components with final concentrations of c-Myc Ni-coated Acceptor Beads (25 μg/ml), and biotinylated Ebox oligo (10 nM). Solution 2:2× solution of streptavidin-coated donor beads (25 μg/ml final) and his6-Max 10 μL. […] 50 nL of compounds from stock plates were added by pin transfer using a Janus Workstation. Solution 2 (10 μl) was added with the liquid handler. Plates were sealed with foil to block light exposure and prevent evaporation. Plates were very briefly centrifuged followed by 2 hour incubation. […] Excitation was at 680 nm for donor bead release of singlet oxygen and emission was read with a bandpass filter from 520-620 nm.

The test system of test [2] is human small lung cancer cell line H2171. Description: Cell Viability Assay (ATPlite). The class given is cell-based. The note with it: H2171 cells, three days, ATPlite, calculated IC50 class, read-out: H2171 Activity. On the procedure:
Compounds of the invention were assayed for cell viability using the human small lung cancer cell line H2171 as described in the following protocol. Cells were counted and adjusted to 20,000 cells/mL. Using a Biotek EL406, 50 μL of cells in media were distributed into 384 well white plates from Thermo. Immediately after plating, compound in DMSO was distributed to plates. Compounds were added to plates using a 50 nL 384 well pin transfer manifold on a Janus workstation. Stocks were arrayed in 10 point dose response in DMSO stock in 384 well Greiner compound plates. After the addition of compounds, plates were incubated for three days in a 37° C. incubator. Cell viability was read out using ATPlite from Perkin Elmer. Lyophilized powder was resuspended in lysis buffer and diluted 1:2 with deionized water. 25 μL of this solution was added to each well using the Biotek liquid handler. Plates were incubated for 15 minutes at room temperature before signal was read on an Envision Plate Reader. The data from this assay are summarized in Tables 2 and 3 below (H2171 activity).

Setting [3] is: Homo sapiens, NCI-H2171, 72 h, Table 2, compounds of FIG. 1.
Where [4] appears, read: Homo sapiens, NCI-H2171, 72 h, Table 3, compounds of FIG. 2.

T1 sequence (P01106 whole entry): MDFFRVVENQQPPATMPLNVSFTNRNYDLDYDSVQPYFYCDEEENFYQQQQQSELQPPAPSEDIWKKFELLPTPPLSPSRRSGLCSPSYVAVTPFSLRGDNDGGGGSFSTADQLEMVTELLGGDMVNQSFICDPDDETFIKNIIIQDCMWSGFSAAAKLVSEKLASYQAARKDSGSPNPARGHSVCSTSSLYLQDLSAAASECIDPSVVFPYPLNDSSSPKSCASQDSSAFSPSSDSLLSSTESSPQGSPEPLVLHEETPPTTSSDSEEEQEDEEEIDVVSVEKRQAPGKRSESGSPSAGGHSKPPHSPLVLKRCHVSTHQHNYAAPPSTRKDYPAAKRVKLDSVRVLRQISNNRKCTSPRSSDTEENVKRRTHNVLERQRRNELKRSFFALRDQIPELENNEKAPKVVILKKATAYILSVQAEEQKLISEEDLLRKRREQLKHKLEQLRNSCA

On to `CC(=O)Nc1sc2c(c1-c1nc3ccccc3s1)C[C@@H](C)N[C@H]2C` [Compound 218, N-((5R,7S)-3-(benzo[d]thiazol-2-yl)-5,7-dimethyl-4,5,6,7-tetrahydrothieno[2,3-c]pyridin-2-yl)acetamide], for which the IC50 in test [1] (Table 3, compounds of FIG. 2) was 1000 to 10000 nM; in test [2] (Table 3, compounds of FIG. 2), under 300 nM.

Turning to `COCCNCCC(=O)Nc1sc2c(c1-c1nc3cc4c(cc3s1)OCO4)CCNC2` [Compound 556, N-(3-([1,3]Dioxolo[4′,5′:4,5]benzo[1,2-d]thiazol-6-yl)-4,5,6,7-tetrahydrothieno[2,3-c]pyridin-2-yl)-3-((2-methoxyethyl)amino)propanamide], the IC50 in test [1] (Table 2, compounds of FIG. 1) is under 300 nM; in test [2] (setting [3]), under 300 nM.

For the compound `CC(C)NCCC(=O)Nc1sc2c(c1-c1nc3cc(-c4cnn(C)c4)ccc3s1)CCNC2` [compound 161], the IC50 was under 300 nM in test [1] (Table 2, compounds of FIG. 1) and under 300 nM in test [2] (setting [3]).

As to `CCC(=O)NCCC(=O)Nc1sc2c(c1-c1nc3ccccc3s1)CCNC2` [Compound 199, N-(3-(benzo[d]thiazol-2-yl)-4,5,6,7-tetrahydrothieno[2,3-c]pyridin-2-yl)-3-propionamidopropanamide], the IC50 is 1000 to 10000 nM in test [1] (Table 2, compounds of FIG. 1) and 1000 to 10000 nM in test [2] (setting [3]).

As for `COCCNCCC(=O)Nc1sc2c(c1-c1nc3cc(-c4cnn(C)c4)ccc3s1)CCNC2` [compound 184], the IC50 in test [1] (Table 2, compounds of FIG. 1) is under 300 nM; in test [2] (setting [3]), under 300 nM.

Regarding `COCCNCCC(=O)Nc1sc2c(c1-c1nc3cc(F)ccc3s1)CCN[C@@H]2C` [Compound 557], the IC50 is under 300 nM in test [1] (Table 2, compounds of FIG. 1) and under 300 nM in test [2] (setting [3]).

For `CCC(C)NCCC(=O)Nc1sc2c(c1-c1nc3ccccc3s1)CCN(C1COC1)C2` (stereo not drawn) [Compound 137, N-(3-(benzo[d]thiazol-2-yl)-6-(oxetan-3-yl)-4,5,6,7-tetrahydrothieno[2,3-c]pyridin-2-yl)-3-(sec-butylamino)propanamide], the IC50 was 1000 to 10000 nM in test [1] (Table 2, compounds of FIG. 1) and over 10000 nM in test [2] (setting [3]).

As to `COCCNCCC(=O)Nc1sc2c(c1-c1nc3cc(-c4ccc(C(=O)OC)nc4)ccc3s1)CCNC2` [compound 409], the IC50 was under 300 nM in test [1] (Table 2, compounds of FIG. 1) and under 300 nM in test [2] (setting [3]).

Take `CCC(C)NCCC(=O)Nc1sc2c(c1-c1nc3cc(Br)ccc3s1)CCN(C(C)C)C2` (stereo not drawn) [Compound 145, N-(3-(5-Bromobenzo[d]thiazol-2-yl)-6-isopropyl-4,5,6,7-tetrahydrothieno[2,3-c]pyridin-2-yl)-3-(sec-butylamino)propanamide]: the IC50 in test [2] (Table 2, compounds of FIG. 1) was 300 to 1000 nM.

Regarding `CC(=O)Nc1sc2c(c1-c1nc3cc(F)ccc3s1)CCNC2` [Compound 203, N-(3-(5-fluorobenzo[d]thiazol-2-yl)-4,5,6,7-tetrahydrothieno[2,3-c]pyridin-2-yl)acetamide], the IC50 was 1000 to 10000 nM in test [1] (Table 3, compounds of FIG. 2) and 1000 to 10000 nM in test [2] (setting [4]).

`COCCNCCC(=O)Nc1sc2c(c1-c1nc3cc(F)ccc3s1)CC(C)NC2C` (single isomer, unassigned) [Compound 544, N-(3-(5-Fluorobenzo[d]thiazol-2-yl)-5,7-dimethyl-4,5,6,7-tetrahydrothieno[2,3-c]pyridin-2-yl)-3-((2-methoxyethyl)amino)propanamide]: the IC50 in test [1] (Table 2, compounds of FIG. 1) is under 300 nM; in test [2] (setting [3]) it was under 300 nM.

Turning to `Cc1ncsc1-c1ccc(CNC(=O)[C@@H]2C[C@@H](O)CN2C(=O)[C@@H](NC(=O)CCOCCOCCOCCOCCOCCOCCNCCC(=O)Nc2sc3c(c2-c2nc4ccccc4s2)CCNC3)C(C)(C)C)cc1` [Compound 591, N1-(3-(benzo[d]thiazol-2-yl)-4,5,6,7-tetrahydrothieno[2,3-c]pyridin-2-yl)-N25-((S)-1-((2S,4R)-4-hydroxy-2-((4-(4-methylthiazol-5-yl)benzyl)carbamoyl)pyrrolidin-1-yl)-3,3-dimethyl-1-oxobutan-2-yl)-7,10,13,16,19,22-hexaoxa-4-azapentacosanediamide], the IC50 in test [1] (Table 2, compounds of FIG. 1) was over 10000 nM; in test [2] (setting [3]), under 300 nM.

As for `COCCNCCC(=O)Nc1sc2c(c1-c1nc3c(OC)cccc3s1)CCNC2` [Compound 613, N-(3-(4-Methoxybenzo[d]thiazol-2-yl)-4,5,6,7-tetrahydrothieno[2,3-c]pyridin-2-yl)-3-((2-methoxyethyl)amino)propanamide dihydrochloride], the IC50 in test [1] (Table 2, compounds of FIG. 1) was 1000 to 10000 nM; in test [2] (setting [3]), 300 to 1000 nM.

As for `COCCNCCC(=O)Nc1sc2c(c1-c1nc3c(-n4cnc(C)c4)cccc3s1)CCNC2` [Compound 592, 3-((2-Methoxyethyl)amino)-N-(3-(4-(4-methyl-1H-imidazol-1-yl)benzo[d]thiazol-2-yl)-4,5,6,7-tetrahydrothieno[2,3-c]pyridin-2-yl)propanamide trihydrochloride], the IC50 is under 300 nM in test [1] (Table 2, compounds of FIG. 1) and under 300 nM in test [2] (setting [3]).

Turning to `CC[C@H](C)NCCC(=O)Nc1sc2c(c1-c1nc3ccccc3s1)CC(C)NC2C` (single isomer, unassigned) [Compound 620], the IC50 was 1000 to 10000 nM in test [1] (Table 2, compounds of FIG. 1) and 1000 to 10000 nM in test [2] (Table 2, compounds of FIG. 1).

For `CC(=O)Nc1sc2c(c1-c1nc3ccccc3s1)C(C)CNC2` (stereo not drawn) [Compound 205, N-(3-(benzo[d]thiazol-2-yl)-4-methyl-4,5,6,7-tetrahydrothieno[2,3-c]pyridin-2-yl)acetamide], the IC50 is over 10000 nM in test [1] (Table 3, compounds of FIG. 2) and over 10000 nM in test [2] (setting [4]).

For the compound `CCOC(=O)CNCCC(=O)Nc1sc2c(c1-c1nc3ccccc3s1)CCNC2` [Compound 148, Ethyl (3-((3-(benzo[d]thiazol-2-yl)-4,5,6,7-tetrahydrothieno[2,3-c]pyridin-2-yl)amino)-3-oxopropyl)glycinate hydrochloride], the IC50 in test [2] (setting [3]) was over 10000 nM.

For `CCC(C)NCCC(=O)Nc1sc2c(c1-c1nc3cc(Br)ccc3s1)CCN(C(C)C)C2` (stereo not drawn) [Compound 141, N-(3-(5-bromobenzo[d]thiazol-2-yl)-6-isopropyl-4,5,6,7-tetrahydrothieno[2,3-c]pyridin-2-yl)-3-(sec-butylamino)propanamide], in test [2] (setting [3]), the IC50 was 300 to 1000 nM.

Turning to `Cn1cc(CNCCC(=O)Nc2sc3c(c2-c2nc4ccccc4s2)CCNC3)cn1` [Compound 143, N-(3-(benzo[d]thiazol-2-yl)-4,5,6,7-tetrahydrothieno[2,3-c]pyridin-2-yl)-3-(((1-methyl-1H-pyrazol-4-yl)methyl)amino)propanamide], the IC50 in test [2] (setting [3]) was under 300 nM.

As for `CC(C)N1CCc2c(sc(NC(=O)CCNC3CCCC3)c2-c2nc3ccccc3s2)C1` [Compound 542, N-(3-(Benzo[d]thiazol-2-yl)-6-isopropyl-4,5,6,7-tetrahydrothieno[2,3-c]pyridin-2-yl)-3-(cyclopentylamino)propanamide], the IC50 in test [2] (setting [3]) is under 300 nM; in test [2] (Table 2, compounds of FIG. 1, listed as 111) it was 1000 to 10000 nM.

For `CCC(C)NCCC(=O)Nc1sc2c(c1-c1nc3cc(I)ccc3s1)CCN(C(C)C)C2` (stereo not drawn) [Compound 162, 3-(sec-butylamino)-N-(3-(5-iodobenzo[d]thiazol-2-yl)-6-isopropyl-4,5,6,7-tetrahydrothieno[2,3-c]pyridin-2-yl)propanamide dihydrochloride], the IC50 in test [2] (setting [3]) was 1000 to 10000 nM.

For the compound `CCC(C)NCCC(=O)Nc1sc2c(c1-c1nc3cc(C(F)(F)F)ccc3s1)CCN(C(C)C)C2` (stereo not drawn) [Compound 146, 3-(sec-butylamino)-N-(6-isopropyl-3-(5-(trifluoromethyl)benzo[d]thiazol-2-yl)-4,5,6,7-tetrahydrothieno[2,3-c]pyridin-2-yl)propanamide], the IC50 in test [2] (Table 2, compounds of FIG. 1) was under 300 nM.

Consider `CCC(C)NCCC(=O)Nc1sc2c(c1-c1nc3ccccc3s1)CCNC2` (stereo not drawn) [Compound 607, N-(3-(benzo[d]thiazol-2-yl)-4,5,6,7-tetrahydrothieno[2,3-c]pyridin-2-yl)-3-(sec-butylamino)propanamide], for which, in test [2] (Table 2, compounds of FIG. 1), the IC50 was under 300 nM.
